Among the test systems are A498; CCRF-CEM; COLO 205; EKVX; KM12; MOLT-4; Malme-3M; OVCAR-3; OVCAR-5; OVCAR-8; SF-295; SF-539; SK-MEL-28; SK-OV-3; TK-10; UACC-62; UO-31; CAKI-1; IGROV-1.
Test in all cases: inhibition of tumour cell growth, NCI panel, 48 h

The source of these data is ChEMBL document CHEMBL1201862, “PubChem BioAssay data set” (2004).

SMILES strings stand for the structures.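 A five-concentration, 48-hour dose response in 96-well plates underlies each endpoint, interpolated linearly between surrounding concentrations. GI50: concentration for 50% inhibition of growth.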 Activity calls are given as the source filed them. No stated cut-off is given here; in the data, active = GI50 up to about 1.1 µM and inactive = higher.

As for `O=C1OC2CCCC[C@@H]2C2C[C@]34CCCCC3[C@@H](C(=O)O4)C12` (stereo partly specified), the GI50 with A498, with CCRF-CEM, in the assay on COLO 205, in the assay on EKVX, with KM12 and with MOLT-4 was > 100 µM (inactive) in each case. For the same compound, the GI50 in the assay on Malme-3M, with OVCAR-3, with OVCAR-5, in the assay with OVCAR-8, with SF-295 and with SF-539 was > 100 µM (inactive) throughout. Further, the GI50 with SK-MEL-28, with SK-OV-3, in the assay with TK-10, in the assay with UACC-62 and with UO-31 was > 100 µM (inactive) in each case.

For `CCCC(=O)c1ccc(=O)n(C)c1`, the GI50 with CAKI-1, with CCRF-CEM, in the assay with COLO 205, in the assay with EKVX, with IGROV-1 and in the assay with KM12 was > 100 µM (inactive) each time. The GI50 in the assay with MOLT-4, in the assay on Malme-3M, with OVCAR-3, in the assay with OVCAR-5, in the assay on OVCAR-8 and with SF-295 was > 100 µM (inactive) throughout. The GI50 in the assay with SF-539, with SK-MEL-28, with SK-OV-3, in the assay on TK-10, with UACC-62 and in the assay on UO-31 was > 100 µM (inactive) throughout.

Regarding `O=C(c1ccc(Cl)cc1)N(C(=S)N1CCN(c2ccccc2)CC1)c1ccccc1`, the GI50 in the assay on CAKI-1, with CCRF-CEM, in the assay with COLO 205, in the assay with IGROV-1, in the assay on KM12 and with MOLT-4 was > 100 µM (inactive) throughout. The GI50 with Malme-3M, in the assay with OVCAR-3, in the assay with OVCAR-5, with OVCAR-8, in the assay on SF-295 and in the assay on SF-539 was > 100 µM (inactive) throughout. Also, the GI50 in the assay on SK-MEL-28, in the assay on SK-OV-3, in the assay on TK-10, with UACC-62 and with UO-31 was > 100 µM (inactive) throughout.

As for `O=C(CC(=O)C(=O)CC(=O)OCc1ccccc1)OCc1ccccc1`, the GI50 in the assay with A498 was > 100 µM (inactive); in the assay with CAKI-1 it was > 100 µM (inactive); in the assay on CCRF-CEM, 49.2 µM (inactive); with COLO 205 it was > 100 µM (inactive); in the assay with EKVX, > 100 µM (inactive); with IGROV-1, 78.3 µM (inactive). In addition, the GI50 in the assay on MOLT-4 is 64.3 µM (inactive); in the assay on Malme-3M it was > 100 µM (inactive); in the assay with OVCAR-5, > 100 µM (inactive); with OVCAR-8, > 100 µM (inactive); in the assay with SF-539 it was 53.5 µM (inactive); in the assay with SK-MEL-28, 67.6 µM (inactive). Moreover, the GI50 with SK-OV-3 is > 100 µM (inactive); in the assay with TK-10, > 100 µM (inactive); in the assay with UACC-62, 84.9 µM (inactive); with UO-31, 27.3 µM (inactive).

For `O=C(Nc1nc2ncn(CC(COc3ccccc3)OC(=O)c3ccccc3)c2c(=O)[nH]1)c1ccccc1` (stereo unspecified), the GI50 in the assay on A498, in the assay on CAKI-1, with EKVX, with IGROV-1, in the assay with KM12 and in the assay on MOLT-4 was > 100 µM (inactive) in each case. The GI50 in the assay on Malme-3M was > 100 µM (inactive); with OVCAR-3, > 100 µM (inactive); in the assay on OVCAR-5 it was > 100 µM (inactive); in the assay on OVCAR-8, > 100 µM (inactive); in the assay on SF-295 it was 48 µM (inactive); in the assay on SF-539, > 100 µM (inactive). In addition, the GI50 in the assay with SK-MEL-28, in the assay with SK-OV-3, with UACC-62 and in the assay with UO-31 was > 100 µM (inactive) throughout.

Take `O=C1c2ccccc2C2(Br)C(=O)c3ccccc3C12` (stereo unspecified): the GI50 is > 100 µM (inactive) in the assay with CAKI-1; 42.4 µM (inactive) in the assay on CCRF-CEM; > 100 µM (inactive) with COLO 205; > 100 µM (inactive) in the assay on EKVX; > 100 µM (inactive) in the assay on IGROV-1; > 100 µM (inactive) in the assay with KM12. Besides, the GI50 with MOLT-4, with Malme-3M, in the assay with OVCAR-3, in the assay on OVCAR-5, in the assay with OVCAR-8 and with SF-295 was > 100 µM (inactive) throughout. The GI50 in the assay on SF-539, in the assay with SK-MEL-28, in the assay with SK-OV-3, in the assay on TK-10, in the assay with UACC-62 and in the assay on UO-31 was > 100 µM (inactive) throughout.

As for `COc1cc(Br)c(/C=N\c2cccc3cc(OC)c(OC)cc23)cc1OC`, the GI50 in the assay with CAKI-1 is 41.5 µM (inactive); in the assay on CCRF-CEM it was 17.8 µM (inactive); with COLO 205 it was 97.7 µM (inactive); in the assay on EKVX it was 50.2 µM (inactive); in the assay on IGROV-1, 61.2 µM (inactive); in the assay with KM12, 28.8 µM (inactive). Besides, the GI50 in the assay with MOLT-4 was 26.8 µM (inactive); in the assay on Malme-3M it was 54.1 µM (inactive); with OVCAR-3, 23.5 µM (inactive); with OVCAR-5 it was > 100 µM (inactive); in the assay with OVCAR-8 it was 34.7 µM (inactive); in the assay with SF-295, 25.9 µM (inactive). The GI50 with SF-539 was 22.1 µM (inactive); in the assay on SK-MEL-28, 88.3 µM (inactive); with SK-OV-3 it was > 100 µM (inactive); in the assay with TK-10, 83.2 µM (inactive); in the assay with UACC-62, 26 µM (inactive); in the assay with UO-31 it was 27.9 µM (inactive).

On to `C[N+]1(C)C/C(=C\c2ccccc2)C(=O)/C(=C/c2ccccc2)C1`, for which the GI50 with A498 is > 100 µM (inactive); in the assay with CCRF-CEM, 49 µM (inactive); in the assay on COLO 205, > 100 µM (inactive); with EKVX it was < 0.01 µM (active); in the assay with IGROV-1, > 100 µM (inactive); with KM12, > 100 µM (inactive). Also, the GI50 in the assay with MOLT-4 was 32.8 µM (inactive); in the assay with Malme-3M, > 100 µM (inactive); in the assay on OVCAR-3, > 100 µM (inactive); in the assay with OVCAR-5, > 100 µM (inactive); with OVCAR-8, > 100 µM (inactive); in the assay with SF-295 it was > 100 µM (inactive). For the same compound, the GI50 in the assay on SF-539, with SK-MEL-28, in the assay with SK-OV-3, in the assay with TK-10 and with UO-31 was > 100 µM (inactive) each time.

Turning to `NCCNCCNCc1c2ccccc2c(CNCCNCCN)c2ccccc12`, the GI50 with CAKI-1 is > 100 µM (inactive); in the assay with CCRF-CEM, 78.5 µM (inactive); with COLO 205 it was 52.1 µM (inactive); in the assay on EKVX, > 100 µM (inactive); in the assay with IGROV-1, 75 µM (inactive); in the assay with KM12, 40.4 µM (inactive). Besides, the GI50 in the assay on MOLT-4 is 36.5 µM (inactive); in the assay on Malme-3M, 84.9 µM (inactive); in the assay with OVCAR-3, > 100 µM (inactive); in the assay on OVCAR-5, > 100 µM (inactive); with OVCAR-8, 47.9 µM (inactive); in the assay on SF-295 it was 41.4 µM (inactive). The GI50 in the assay on SF-539 was 37.5 µM (inactive); in the assay with SK-MEL-28 it was > 100 µM (inactive); in the assay on SK-OV-3 it was > 100 µM (inactive); in the assay with TK-10 it was > 100 µM (inactive); in the assay on UACC-62, 34 µM (inactive); in the assay on UO-31 it was > 100 µM (inactive).

Take `CSC1(C)CC2C(CC1N1CCCCC1)C2(C)C` (stereo unspecified): the GI50 with CCRF-CEM, with COLO 205, with IGROV-1, in the assay with KM12, with MOLT-4 and in the assay on Malme-3M was > 100 µM (inactive) in each case. Besides, the GI50 in the assay on OVCAR-3, in the assay with OVCAR-5, in the assay on OVCAR-8, in the assay on SF-295, in the assay with SF-539 and in the assay on SK-MEL-28 was > 100 µM (inactive) throughout. Moreover, the GI50 with SK-OV-3, in the assay with TK-10 and with UO-31 was > 100 µM (inactive) each time.

For `COc1cc2c3c(c1OC)C1(C=CC(=O)C=C1)C[C@H]3N(C)CC2` [PRONUCIFERINE], the GI50 with COLO 205, with EKVX, with IGROV-1, with KM12, with MOLT-4 and with Malme-3M was > 100 µM (inactive) in each case. Moreover, the GI50 in the assay on OVCAR-3, in the assay with OVCAR-5, in the assay on OVCAR-8, in the assay on SF-295, in the assay with SF-539 and with SK-MEL-28 was > 100 µM (inactive) throughout. In addition, the GI50 with SK-OV-3, in the assay with TK-10, in the assay with UACC-62 and in the assay with UO-31 was > 100 µM (inactive) throughout.
